Data on 16 compounds can be found in PubChem BioAssay AID248 (DTP/NCI, 2004).

Inconclusive results and toxic doses are left out.

This assay has as its system L1210 leukemia ip in BDF1 mice, survival T/C. In words: NCI In Vivo Anticancer Drug Screen. Data for tumor model L1210 Leukemia (intraperitoneal) in B6D2F1 (BDF1) mice. The note with it: endpoint: mean survival time, higher = longer survival. In a few lines: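 Each compound was tested against a transplantable tumor grown in mice. The endpoint was survival, with treated animals benchmarked against vehicle controls as a simple ratio.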

Where [1] appears, read: dose: 100.0 mg/kg/injection, schedule: Q04DX002 (ip), vehicle: Klucel (hydroxypropylcellulose) (HPC).
The mark [2] stands for this setting: dose: 200.0 mg/kg/injection, schedule: Q04DX002 (ip), vehicle: Klucel (hydroxypropylcellulose) (HPC).
The mark [3] stands for this setting: dose: 100.0 mg/kg/injection, schedule: Q04DX003 (ip), vehicle: saline with Tween-80.
Where [4] appears, read: dose: 200.0 mg/kg/injection, schedule: Q04DX003 (ip), vehicle: saline with Tween-80.
Where [5] appears, read: dose: 400.0 mg/kg/injection, schedule: Q04DX003 (ip), vehicle: saline with Tween-80.
[6] abbreviates: dose: 75.0 mg/kg/injection, schedule: Q01DX001 (ip), vehicle: saline.
[7] abbreviates: dose: 100.0 mg/kg/injection, schedule: Q04DX003 (ip), vehicle: Klucel (hydroxypropylcellulose) (HPC).
Where [8] appears, read: dose: 200.0 mg/kg/injection, schedule: Q04DX003 (ip), vehicle: Klucel (hydroxypropylcellulose) (HPC).
The mark [9] stands for this setting: dose: 400.0 mg/kg/injection, schedule: Q04DX003 (ip), vehicle: Klucel (hydroxypropylcellulose) (HPC).
[10] abbreviates: dose: 100.0 mg/kg/injection, schedule: Q01DX009 (ip), vehicle: Klucel (hydroxypropylcellulose) (HPC).
Where [11] appears, read: dose: 200.0 mg/kg/injection, schedule: Q01DX009 (ip), vehicle: Klucel (hydroxypropylcellulose) (HPC).

For the compound `CSc1nc2ccc([N+](=O)[O-])cc2s1`, the T/C under setting [1] is 93 % of control; the T/C under setting [2] is 97 % of control; the T/C (dose: 400.0 mg/kg/injection, schedule: Q04DX002 (ip), vehicle: Klucel (hydroxypropylcellulose) (HPC)) was 101 % of control.
With `Cc1nc(CCl)no1`, the T/C by setting is: (dose: 100.0 mg/kg/injection, schedule: Q04DX002 (ip), vehicle: saline with Tween-80) 104 % of control; (dose: 200.0 mg/kg/injection, schedule: Q04DX002 (ip), vehicle: saline with Tween-80) 95 % of control.
With `N#C/C(=C\c1c[nH]c2ccccc12)C(N)=O`, the T/C runs as follows: (dose: 50.0 mg/kg/injection, schedule: Q04DX003 (ip), vehicle: saline) 104 % of control; under setting [3], 93 % of control; (dose: 100.0 mg/kg/injection, schedule: Q04DX003 (ip), vehicle: saline) 107 % of control; under setting [4], 104 % of control; (dose: 200.0 mg/kg/injection, schedule: Q04DX003 (ip), vehicle: saline) 95 % of control; under setting [5], 96 % of control. Also, for the setting “dose: 400.0 mg/kg/injection, schedule: Q04DX003 (ip), vehicle: saline”, the T/C is 97 % of control.
Take `O=C(O)C1C(C(=O)O)C2(Cl)C(Cl)=C(Cl)C1(Cl)C2(Cl)Cl.[Cu+2]` (stereo not drawn): the T/C is 92 % of control (dose: 25.0 mg/kg/injection, schedule: Q01DX001 (ip), vehicle: Klucel (hydroxypropylcellulose) (HPC)); 97 % of control (dose: 50.0 mg/kg/injection, schedule: Q01DX001 (ip), vehicle: Klucel (hydroxypropylcellulose) (HPC)); 95 % of control (dose: 50.0 mg/kg/injection, schedule: Q01DX009 (ip), vehicle: saline sonified).
Turning to `CCCCCCCCCCCCCCCC(=O)N(CCCN)CCCCN(CCCN)C(=O)CCCCCCCCCCCCCCC`, the T/C by setting is: (dose: 100.0 mg/kg/injection, schedule: Q01DX001 (ip), vehicle: saline with Tween-80) 100 % of control; (dose: 100.0 mg/kg/injection, schedule: Q01DX009 (ip), vehicle: saline with Tween-80) 103 % of control; under setting [3], 110 % of control; (dose: 200.0 mg/kg/injection, schedule: Q01DX001 (ip), vehicle: saline with Tween-80) 96 % of control; (dose: 200.0 mg/kg/injection, schedule: Q01DX009 (ip), vehicle: saline with Tween-80) 96 % of control; under setting [4], 107 % of control. Moreover, the T/C by setting is: (dose: 400.0 mg/kg/injection, schedule: Q01DX001 (ip), vehicle: saline with Tween-80) 104 % of control; (dose: 400.0 mg/kg/injection, schedule: Q01DX009 (ip), vehicle: saline with Tween-80) 96 % of control; under setting [5], 111 % of control.
As for `CC(C)=NC(=O)NO.[Cl][Co][Cl]`, the T/C is, setting by setting: (dose: 9.4 mg/kg/injection, schedule: Q04DX003 (ip), vehicle: saline) 100 % of control; (dose: 18.75 mg/kg/injection, schedule: Q04DX003 (ip), vehicle: saline) 107 % of control; (dose: 37.5 mg/kg/injection, schedule: Q04DX003 (ip), vehicle: saline) 107 % of control; under setting [6], 103 % of control.
In the case of `Cc1ccc(C(=O)C2CC2c2ccccc2)cc1` (stereo not drawn), the T/C reads like this: under setting [7], 101 % of control; under setting [8], 101 % of control; under setting [9], 95 % of control.
On to `Cc1ccc([N+](=O)[O-])cc1NC(=O)Nc1cccc2c(O)cccc12`, for which the T/C is, setting by setting: under setting [10], 86 % of control; under setting [11], 100 % of control.
Take `C[N+](C)(C)c1ccc(F)c([N+](=O)[O-])c1`: the T/C runs as follows: (dose: 50.0 mg/kg/injection, schedule: Q01DX005 (ip), vehicle: Klucel (hydroxypropylcellulose) (HPC)) 95 % of control; (dose: 50.0 mg/kg/injection, schedule: Q01DX009 (ip), vehicle: Klucel (hydroxypropylcellulose) (HPC)) 96 % of control; (dose: 100.0 mg/kg/injection, schedule: Q01DX005 (ip), vehicle: Klucel (hydroxypropylcellulose) (HPC)) 98 % of control; under setting [10], 96 % of control; under setting [1], 90 % of control; (dose: 200.0 mg/kg/injection, schedule: Q01DX005 (ip), vehicle: Klucel (hydroxypropylcellulose) (HPC)) 103 % of control. The T/C under setting [11] was 96 % of control and the T/C under setting [2] was 96 % of control.
Regarding `CCC[N+](C)(C)CC`, the T/C is 104 % of control (dose: 37.5 mg/kg/injection, schedule: Q01DX001 (ip), vehicle: saline) and 95 % of control under setting [6].
With `Cc1cc(S(=O)(=O)c2cc(C)c(O)c(C(=O)O)c2)cc(C(=O)O)c1O`, the T/C runs as follows: (dose: 100.0 mg/kg/injection, schedule: Q04DX002 (ip), vehicle: carboxymethylcellulose (CMC)) 95 % of control; (dose: 200.0 mg/kg/injection, schedule: Q04DX002 (ip), vehicle: carboxymethylcellulose (CMC)) 98 % of control.
With `c1ccc(C2CC(c3ccccc3)S2)cc1` (stereo not drawn), the T/C runs as follows: under setting [7], 100 % of control; under setting [8], 105 % of control; under setting [9], 105 % of control.
On to `CC[C@@]1(O)C(=O)OCc2c1cc1n(c2=O)Cc2cc3c(OC)cccc3nc2-1`, for which the T/C was 122 % of control (dose: 0.25 mg/kg/injection, schedule: Q01DX009 (ip), vehicle: saline with Tween-80); 120 % of control (dose: 0.5 mg/kg/injection, schedule: Q01DX009 (ip), vehicle: carboxymethylcellulose (CMC)); 122 % of control (dose: 0.5 mg/kg/injection, schedule: Q01DX009 (ip), vehicle: saline with Tween-80); 107 % of control (dose: 1.0 mg/kg/injection, schedule: Q01DX009 (ip), vehicle: carboxymethylcellulose (CMC)); 162 % of control (dose: 1.0 mg/kg/injection, schedule: Q01DX009 (ip), vehicle: saline with Tween-80); 88 % of control (dose: 4.0 mg/kg/injection, schedule: Q01DX009 (ip), vehicle: carboxymethylcellulose (CMC)). Besides, the T/C runs as follows: (dose: 4.0 mg/kg/injection, schedule: Q04DX003 (ip), vehicle: saline with Tween-80) 173 % of control; (dose: 8.0 mg/kg/injection, schedule: Q04DX003 (ip), vehicle: saline with Tween-80) 215 % of control; (dose: 12.5 mg/kg/injection, schedule: Q04DX003 (ip), vehicle: saline with Tween-80) 123 % of control; (dose: 25.0 mg/kg/injection, schedule: Q04DX003 (ip), vehicle: saline with Tween-80) 96 % of control; (dose: 50.0 mg/kg/injection, schedule: Q04DX003 (ip), vehicle: saline with Tween-80) 93 % of control.
Consider `O=c1[nH][nH]c(=O)c2c1nc(SCc1ccccc1Br)n2Cc1ccccc1`, for which the T/C is 95 % of control (dose: 100.0 mg/kg/injection, schedule: Q01DX001 (ip), vehicle: carboxymethylcellulose (CMC)); 97 % of control (dose: 200.0 mg/kg/injection, schedule: Q01DX001 (ip), vehicle: carboxymethylcellulose (CMC)); 97 % of control (dose: 400.0 mg/kg/injection, schedule: Q01DX001 (ip), vehicle: carboxymethylcellulose (CMC)).
Turning to `CC(C)(C)c1ccccc1C(N)=O`, the T/C by setting is: (dose: 100.0 mg/kg/injection, schedule: Q04DX003 (ip), vehicle: other) 101 % of control; (dose: 200.0 mg/kg/injection, schedule: Q04DX003 (ip), vehicle: other) 109 % of control; (dose: 400.0 mg/kg/injection, schedule: Q04DX003 (ip), vehicle: other) 91 % of control.
On to `Nc1cccn2cnnc12`, for which the T/C was 103 % of control (dose: 100.0 mg/kg/injection, schedule: Q01DX001 (ip), vehicle: saline); 101 % of control (dose: 200.0 mg/kg/injection, schedule: Q01DX001 (ip), vehicle: saline); 97 % of control (dose: 400.0 mg/kg/injection, schedule: Q01DX001 (ip), vehicle: saline).
